The subject of one data set is mouse target mRNA. Briefly: Activity assessment of HSC-LNP: liver target mRNA knock-down (QuantiGene) after IV injection of siRNA LNP (Table 1). In kind it is in vivo, female Balb/C mice. The following applies: dose 0.025 mg/kg IV, 48h post-dose, relative to PBS control. Here is the method: (§1) The lipid solution contained 4 components: a PEG-conjugated lipid, an ionizable lipid (e.g., a silicon lipid), cholesterol, and a phospholipid (e.g., DSPC). Lipid stocks were prepared using the lipid identities and molar ratios as described. The siRNA was diluted in 100 mM acetate, pH 4 buffer to prepare lipid nanoparticles (LNP) at a total lipid to siRNA weight ratio of approximately 10:1 to 20:1. Equal volumes of the lipid and nucleic acid solutions were blended at a flow rate of 400 mL/min through a T-connector, and diluted into PBS, pH 7.4. The ethanol was then removed and the external buffer replaced with Tris/NaCl buffer by dialysis. Following dialysis, the formulations were concentrated using VivaSpin concentrator units (MWCO 100,000) and filtered through a 0.2 μm pore sterile filter. Nucleic acid concentration was determined by the RiboGreen assay. Particle size and polydispersity were determined using a Malvern Nano Series Zetasizer.
(§2) Just prior to injection, the siRNA LNP stocks were filtered and diluted down to the required dosing concentration. At 48h post-dose (terminal timepoint), the animals were euthanized with a lethal dose of ketamine/xylazine. Half the left lateral lobe of the liver was collected into 1.5 mL RNALater and stored at 2-8° C. overnight. The next day, an approximately 20-25 mg piece of liver was homogenized and the liver lysate used in a QuantiGene Assay, testing for relative levels of mouse target mRNA and GAPDH expression. Data from each animal was normalized to the liver weight used in the assay, and then relative to the GAPDH signal; data is reported as the average % knock-down of each group (where the PBS control group is 100% gene expression, 0% knock-down).

For a further data set, the system named is reelin mRNA. Briefly: Reelin mRNA knock-down following IV administration of the LNP formulations (FIGS. 1-4). It is filed as in vivo. The note with it: Balb/C mice (n=4); for dose giving equivalent potency in reelin mRNA knock-down (FIG. 1) / reelin mRNA knock-down in HSCs, specificity for HSCs (FIG. 2): 48 hours following IV administration. The method, then:
as §1
as §2, with “Generally, the LNP formulations were injected intravenously at 0.025 mg/kg to female Balb/C mice (5-8 weeks old) to measure activity of the HSC-LNP. Just” for “Just”

Data set [1] can be described thus: Tolerability assessment of HSC-LNP: liver enzyme levels (FIGS. 5A-5B). In kind it is in vivo, female Balb/C mice. The following applies: dose range up to 3 mg/kg IV. The method, then:
Generally, the LNP formulations were injected intravenously at ˜0.03 to 3 mg/kg to female Balb/C mice (5-8 weeks old) to assess tolerability of the HSC-LNP. Just prior to injection, the siRNA LNP stocks were filtered and diluted down to the required dosing concentration. At 2h post-treatment, blood was collected via tail nicks and processed to plasma (for cytokine analysis by ELISA). At the terminal timepoint (24 h post-dose), blood was collected by cardiac puncture (target ≥800 μL) and sent to IDEXX for CRES 15 panel analysis (CBC/Diff & Clin Chem analysis).
Briefly, blood (˜300 uL) was collected into EDTA microtainer tubes, inverted 10× to mix the K2EDTA whole blood sample, and immediately stored at 4° C. to await same-day shipment to for hematology analysis. The remaining blood volume (˜500 uL) was collected into serum separator tubes and inverted 5× to mix the SST sample, then allowed to clot for 1-1.5h at room temp. The blood samples were centrifuged, and serum was collected for clinical chemistry analysis.

Data set [2] in a line: Duration of action of LNP with minimally modified siRNA (FIG. 6). It is filed as in vivo.
Data set [3] in a line: Clearance of LNP from mouse liver, biodegradable functionality (FIG. 7). It is filed as in vivo.
The mark [4] stands for this setting: 24 hours following IV administration.

`CCCCC/C=C\CCCO[Si](C)(CCCCN1C[C@H]2CCCN(CCCC[Si](C)(OCCC/C=C\CCCCC)OCCC/C=C\CCCCC)[C@H]2C1)OCCC/C=C\CCCCC` [Compound 43] displayed a Percent knock-down in the data set with mouse target mRNA (Formulation 1.5:50 (DSPC)) of 0%.

Regarding `CCCCC/C=C\CCCO[SiH](CCCCN1CCN(C)CCN(CCCC[Si](C)(OCCC/C=C\CCCCC)OCCC/C=C\CCCCC)CC1)OCCC/C=C\CCCCC` [Compound 38], the Percent knock-down in the data set with mouse target mRNA (Formulation 1.5:50 (DSPC)) amounted to 1%. In turn, `CCCCC/C=C\CCCO[Si](C)(CCCCN(CC)CCCN(CC)CCCC[Si](C)(OCCC/C=C\CCCCC)OCCC/C=C\CCCCC)OCCC/C=C\CCCCC` [Compound 29] had a Percent knock-down with mouse target mRNA (Formulation 1.1:55 (DSPC)) of 29%.

For the compound `CCCCC/C=C\CCCO[Si](C)(CCCCN(C)CCCN(C)CCCC[Si](C)(OCCC/C=C\CCCCC)OCCC/C=C\CCCCC)OCCC/C=C\CCCCC` [Compound 12, N1,N3-bis(4-(bis(((Z)-dec-4-en-1-yl)oxy)(methyl)silyl)butyl)-N1,N3-dimethylpropane-1,3-diamine], in the data set on reelin mRNA (setting [4]), the “dose at which maximum knock-down in HSCs is achieved (FIG. 3)” value is reported as “about 0.03 mg/kg” and the “dose required to achieve equivalent reelin mRNA knock-down (FIG. 4)” value was 0.03 mg/kg. Besides, in the data set with reelin mRNA, the “dose giving equivalent potency in reelin mRNA knock-down (FIG. 1)” value came out at 0.025 mg/kg and the “reelin mRNA knock-down in HSCs, specificity for HSCs (FIG. 2)” value is on record as “high specificity for HSCs”. Moreover, the “tolerability: liver enzyme levels (FIGS. 5A-5B)” value in data set [1] is on record as “no significant increases in liver enzyme levels”. Also, in data set [2], the “duration of action (FIG. 6)” value is given as “good duration of action”. Also, in data set [3], the “clearance of LNP from mouse liver (FIG. 7)” value is recorded as “cleared rapidly from mouse liver”. Compound `CCCCC/C=C\CCCO[Si](C)(CCCCN1CCC2(CC1)CCN(CCCC[Si](C)(OCCC/C=C\CCCCC)OCCC/C=C\CCCCC)C2)OCCC/C=C\CCCCC` [Compound 39] displayed a Percent knock-down in the data set with mouse target mRNA (Formulation 1.5:50 (DSPC)) of 81%. `CCCCC/C=C\CCCC(CCC/C=C\CCCCC)C(CCC/C=C\CCCCC)OC(=O)CCCCN(C)C` (stereo not shown) [Compound 101, reference compound]: the “reelin mRNA knock-down in HSCs, specificity for HSCs (FIG. 2)” value with reelin mRNA was “no knock-down in HSCs”. `CCCCC/C=C\CCCO[Si](C)(CCCCN1CCC2(CC1)CCN(CCCC[Si](C)(OCCC/C=C\CCCCC)OCCC/C=C\CCCCC)CC2)OCCC/C=C\CCCCC` [Compound 42] returned a Percent knock-down with mouse target mRNA (Formulation 1.5:50 (DSPC)) of 28%. Compound `CCCCC/C=C\CCCO[Si](C)(CCCCN1CCC2(CC1)CCN(CCCC[Si](C)(OCCC/C=C\CCCCC)OCCC/C=C\CCCCC)CC2)OCCC/C=C\CCCCC` [Compound 14] had a Percent knock-down with mouse target mRNA (Formulation 1.1:55 (DOPE)) of 18%. Turning to `CCCCC/C=C\CCCC(CCC/C=C\CCCCC)C(CCC/C=C\CCCCC)OC(=O)CCCCCN(C)C` (stereo not shown) [Compound 100, reference compound], in the data set with reelin mRNA (setting [4]), the “dose required to achieve equivalent reelin mRNA knock-down (FIG. 4)” value is on record as about 1 mg/kg. In the data set with reelin mRNA, the “dose giving equivalent potency in reelin mRNA knock-down (FIG. 1)” value was 0.1 mg/kg.

(Values after patent US12673963B2, “Cationic lipids for lipid nanoparticle delivery of therapeutics to hepatic stellate cells” (GENEVANT SCIENCES GMBH, priority 2020, dated 2026).)
